The structures appear in SMILES notation. pIC50: −log10 of the molar value. Where a SMILES comes first, the peptide text is derived from it. Bridges are numbered along the chain shown (N, C = ends). [ ]: non-standard residue; d: D form. Trp(βS-Me) = C[C@@H](c1c[nH]c2ccccc12)[C@H](N)C(=O)O; Phe(3,4-Cl2) = N[C@@H](Cc1ccc(Cl)c(Cl)c1)C(=O)O; Phe(3-CF3) = N[C@@H](Cc1cccc(C(F)(F)F)c1)C(=O)O; Ala(morpholin-4-yl) = N[C@@H](CN1CCOCC1)C(=O)O; Phe(4-COOH) = N[C@@H](Cc1ccc(C(=O)O)cc1)C(=O)O; Phe(4-CH2NH2) = NCc1ccc(C[C@H](N)C(=O)O)cc1; Bip = N[C@@H](Cc1ccc(-c2ccccc2)cc1)C(=O)O; Phe(4-Br) = N[C@@H](Cc1ccc(Br)cc1)C(=O)O; Phe(4-NH2) = Nc1ccc(C[C@H](N)C(=O)O)cc1; hPhe = N[C@@H](CCc1ccccc1)C(=O)O; 2Thi = N[C@@H](Cc1cccs1)C(=O)O; Cha = N[C@@H](CC1CCCCC1)C(=O)O; Orn = NCCC[C@H](N)C(=O)O; Dab = NCC[C@H](N)C(=O)O

Usually pIC50 stands for the IC50 on a negative log10 scale, so that one unit is a factor of ten.

The target of the assay is T1, human PD-1 / PD-L1-Ig binding on Jurkat cell line over-expressing human PD-1 (Jurkat-PD-1) (Homo sapiens, UniProt Q15116).
T1 construct: expressed in transfected cells; host or cells: Jurkat
T1 sequence (Q15116 25-288): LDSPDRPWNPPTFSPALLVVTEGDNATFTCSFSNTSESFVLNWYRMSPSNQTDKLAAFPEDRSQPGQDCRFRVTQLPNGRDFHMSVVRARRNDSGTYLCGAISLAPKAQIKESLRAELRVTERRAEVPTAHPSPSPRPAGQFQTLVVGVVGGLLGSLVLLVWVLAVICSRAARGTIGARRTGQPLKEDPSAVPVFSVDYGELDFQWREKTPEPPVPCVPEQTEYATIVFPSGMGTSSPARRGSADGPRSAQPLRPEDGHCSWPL
Briefly: Jurkat-PD-1 Cell Binding High-Content Screening Assay (CBA). The format is cell-based. The following applies: Jurkat-PD-1 cells, PE-labeled PD-L1-Ig 20 nM final; read-out: Jurkat HPD1_PDL1 IC50. The procedure, abridged:
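Jurkat-hPD-1 cells in DMEM with 10% fetal calf serum receive test compound and are held at 37° C for 2 h. PE-labeled PD-L1-Ig is added at 20 nM final and left for 1 hour. Cells are then fixed and Hoechst-stained, and binding is measured by imaging.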
In the case of `CC(C)C[C@H]1NC(=O)[C@H](CCCN)NC(=O)[C@H](Cc2ccc(C(=O)O)cc2)NC(=O)[C@H](Cc2ccc(-c3ccccc3)cc2)NC(=O)[C@H](Cc2ccc(N)cc2)NC(=O)[C@H](Cc2cccc(C(F)(F)F)c2)NC(=O)[C@H](CC(=O)O)NC(=O)[C@H](Cc2ccc(C(=O)O)cc2)NC(=O)[C@H](CN2CCOCC2)NC(=O)CSC[C@@H](C(=O)N[C@@H](CCN)C(N)=O)NC(=O)[C@H](CCC(=O)O)NC(=O)[C@H](C(C)C)NC(=O)[C@H](CC2CCCCC2)NC(=O)[C@H](CCN)NC1=O` [Example 2743] ({CH2CO}-[Ala(morpholin-4-yl)][Phe(4-COOH)]D[Phe(3-CF3)][Phe(4-NH2)][Bip][Phe(4-COOH)][Orn][dL][Dab][Cha]VEC[Dab]-NH2; thioether N-14), the pIC50 was 8.66.
Turning to `CC(C)C[C@H]1NC(=O)[C@H](CCCN)NC(=O)[C@H](Cc2ccc(C(=O)O)cc2)NC(=O)[C@H](Cc2ccc(-c3ccccc3)cc2)NC(=O)[C@H](CCc2ccccc2)NC(=O)[C@H](Cc2cccc(C(F)(F)F)c2)NC(=O)[C@H](CC(=O)O)NC(=O)[C@H](Cc2ccc(C(=O)O)cc2)NC(=O)[C@H](CN2CCOCC2)NC(=O)CSC[C@@H](C(=O)N[C@@H](CCN)C(N)=O)NC(=O)[C@H](CCC(=O)O)NC(=O)[C@H](C(C)C)NC(=O)[C@H](CC2CCCCC2)NC(=O)[C@H](CCN)NC1=O` [Example 2744] ({CH2CO}-[Ala(morpholin-4-yl)][Phe(4-COOH)]D[Phe(3-CF3)][hPhe][Bip][Phe(4-COOH)][Orn][dL][Dab][Cha]VEC[Dab]-NH2; thioether N-14), the pIC50 is 8.47.
As for `CC(C)C[C@H]1NC(=O)[C@H](CCCN)NC(=O)[C@H](Cc2ccc(C(=O)O)cc2)NC(=O)[C@H](Cc2ccc(-c3ccccc3)cc2)NC(=O)[C@H](Cc2ccc(Cl)c(Cl)c2)NC(=O)[C@H](Cc2cccc(C(F)(F)F)c2)NC(=O)[C@H](CC(=O)O)NC(=O)[C@H](Cc2ccc(C(=O)O)cc2)NC(=O)[C@H](CN2CCOCC2)NC(=O)CSC[C@@H](C(=O)N[C@@H](CCN)C(N)=O)NC(=O)[C@H](CCC(=O)O)NC(=O)[C@H](C(C)C)NC(=O)[C@H](CC2CCCCC2)NC(=O)[C@H](CCN)NC1=O` [Example 2745] ({CH2CO}-[Ala(morpholin-4-yl)][Phe(4-COOH)]D[Phe(3-CF3)][Phe(3,4-Cl2)][Bip][Phe(4-COOH)][Orn][dL][Dab][Cha]VEC[Dab]-NH2; thioether N-14), the pIC50 is 8.64.
With `CC(C)C[C@H]1NC(=O)[C@H](CCCN)NC(=O)[C@H](Cc2ccc(C(=O)O)cc2)NC(=O)[C@H](Cc2ccc(-c3ccccc3)cc2)NC(=O)[C@H](Cc2ccc(-c3ccccc3)cc2)NC(=O)[C@H](Cc2cccc(C(F)(F)F)c2)NC(=O)[C@H](CC(=O)O)NC(=O)[C@H](Cc2ccc(C(=O)O)cc2)NC(=O)[C@H](CN2CCOCC2)NC(=O)CSC[C@@H](C(=O)N[C@@H](CCN)C(N)=O)NC(=O)[C@H](CCC(=O)O)NC(=O)[C@H](C(C)C)NC(=O)[C@H](CC2CCCCC2)NC(=O)[C@H](CCN)NC1=O` [Example 2746] ({CH2CO}-[Ala(morpholin-4-yl)][Phe(4-COOH)]D[Phe(3-CF3)][Bip][Bip][Phe(4-COOH)][Orn][dL][Dab][Cha]VEC[Dab]-NH2; thioether N-14) the figure was 8.43.
For `CC(C)C[C@H]1NC(=O)[C@H](CCCN)NC(=O)[C@H](Cc2ccc(C(=O)O)cc2)NC(=O)[C@H](Cc2ccc(-c3ccccc3)cc2)NC(=O)[C@H](Cc2ccc(CN)cc2)NC(=O)[C@H](Cc2cccc(C(F)(F)F)c2)NC(=O)[C@H](CC(=O)O)NC(=O)[C@H](Cc2ccc(C(=O)O)cc2)NC(=O)[C@H](CN2CCOCC2)NC(=O)CSC[C@@H](C(=O)N[C@@H](CCN)C(N)=O)NC(=O)[C@H](CCC(=O)O)NC(=O)[C@H](C(C)C)NC(=O)[C@H](CC2CCCCC2)NC(=O)[C@H](CCN)NC1=O` [Example 2747] ({CH2CO}-[Ala(morpholin-4-yl)][Phe(4-COOH)]D[Phe(3-CF3)][Phe(4-CH2NH2)][Bip][Phe(4-COOH)][Orn][dL][Dab][Cha]VEC[Dab]-NH2; thioether N-14), the pIC50 was 8.55.
As for `CC(C)C[C@H]1NC(=O)[C@H](CCCN)NC(=O)[C@H](Cc2ccc(C(=O)O)cc2)NC(=O)[C@H](Cc2ccc(-c3ccccc3)cc2)NC(=O)[C@H]([C@@H](C)c2c[nH]c3ccccc23)NC(=O)[C@H](Cc2cccc(C(F)(F)F)c2)NC(=O)[C@H](CC(=O)O)NC(=O)[C@H](Cc2ccc(C(=O)O)cc2)NC(=O)[C@H](CN2CCOCC2)NC(=O)CSC[C@@H](C(=O)N[C@@H](CCN)C(N)=O)NC(=O)[C@H](CCC(=O)O)NC(=O)[C@H](C(C)C)NC(=O)[C@H](CC2CCCCC2)NC(=O)[C@H](CCN)NC1=O` [Example 2748] ({CH2CO}-[Ala(morpholin-4-yl)][Phe(4-COOH)]D[Phe(3-CF3)][Trp(βS-Me)][Bip][Phe(4-COOH)][Orn][dL][Dab][Cha]VEC[Dab]-NH2; thioether N-14), the pIC50 is 7.60.
With `CC(C)C[C@H]1NC(=O)[C@H](CCCN)NC(=O)[C@H](Cc2ccc(C(=O)O)cc2)NC(=O)[C@H](Cc2ccc(-c3ccccc3)cc2)NC(=O)[C@H](Cc2cccs2)NC(=O)[C@H](Cc2cccc(C(F)(F)F)c2)NC(=O)[C@H](CC(=O)O)NC(=O)[C@H](Cc2ccc(C(=O)O)cc2)NC(=O)[C@H](CN2CCOCC2)NC(=O)CSC[C@@H](C(=O)N[C@@H](CCN)C(N)=O)NC(=O)[C@H](CCC(=O)O)NC(=O)[C@H](C(C)C)NC(=O)[C@H](CC2CCCCC2)NC(=O)[C@H](CCN)NC1=O` [Example 2749] ({CH2CO}-[Ala(morpholin-4-yl)][Phe(4-COOH)]D[Phe(3-CF3)][2Thi][Bip][Phe(4-COOH)][Orn][dL][Dab][Cha]VEC[Dab]-NH2; thioether N-14) the figure was 8.72; with `CC(C)C[C@H]1NC(=O)[C@H](CCCN)NC(=O)[C@H](Cc2ccc(C(=O)O)cc2)NC(=O)[C@H](Cc2ccc(-c3ccccc3)cc2)NC(=O)[C@H](Cc2ccc(Br)cc2)NC(=O)[C@H](Cc2cccc(C(F)(F)F)c2)NC(=O)[C@H](CC(=O)O)NC(=O)[C@H](Cc2ccc(C(=O)O)cc2)NC(=O)[C@H](CN2CCOCC2)NC(=O)CSC[C@@H](C(=O)N[C@@H](CCN)C(N)=O)NC(=O)[C@H](CCC(=O)O)NC(=O)[C@H](C(C)C)NC(=O)[C@H](CC2CCCCC2)NC(=O)[C@H](CCN)NC1=O` [Example 2750] ({CH2CO}-[Ala(morpholin-4-yl)][Phe(4-COOH)]D[Phe(3-CF3)][Phe(4-Br)][Bip][Phe(4-COOH)][Orn][dL][Dab][Cha]VEC[Dab]-NH2; thioether N-14), 6.70.

For the origin of these results see US20250163104A1, “MACROCYCLIC IMMUNOMODULATORS” (priority 2021, published 2025).
